Data reported in paper PMC12439166, “Dietary flavonoids form supramolecular assemblies, alter biochemistry, and enhance cell resilience” (Frontiers in Nutrition, 2025).

How the values were obtained:
[1] = biological target: T1, Tyrosine-protein phosphatase non-receptor type 1 (PTP1B) (Homo sapiens, UniProt P18031); assay: Enzyme activity assay (SAMDI-MS), PTP1B; assay type: biochemical; settings: 10 concentrations, 5 nM to 100 μM, compounds incubated with enzyme 30 min, result in words
T1 sequence (P18031 1-435): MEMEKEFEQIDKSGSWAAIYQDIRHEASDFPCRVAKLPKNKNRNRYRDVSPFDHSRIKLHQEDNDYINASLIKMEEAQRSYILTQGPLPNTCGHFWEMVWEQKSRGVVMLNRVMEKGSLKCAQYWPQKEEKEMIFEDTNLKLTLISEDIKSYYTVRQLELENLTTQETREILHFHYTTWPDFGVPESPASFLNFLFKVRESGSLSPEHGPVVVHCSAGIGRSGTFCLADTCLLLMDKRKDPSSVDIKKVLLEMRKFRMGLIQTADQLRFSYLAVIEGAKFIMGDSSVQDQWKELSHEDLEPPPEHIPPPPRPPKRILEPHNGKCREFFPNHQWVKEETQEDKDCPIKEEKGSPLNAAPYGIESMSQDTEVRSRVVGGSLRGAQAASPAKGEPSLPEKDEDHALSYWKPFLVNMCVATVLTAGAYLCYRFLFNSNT
Protocol: Enzyme screens were performed by SAMDI Tech (contract research organization); enzyme assays were performed in a 20 μL volume in 384-well low-volume polypropylene microtiter plates (Greiner Bio-One) at room temperature. The enzymes [Arginase 1 (ARG1), Lysine demethylase 4C (KDM4C), MAP/microtubule affinity-regulating kinase 4 (MARK4), Histone-Lysine N-methyltransferase (NSD2), Tyrosine-protein phosphatase non-receptor type 1 (PTP1B), and Sirtuin-3 (SIRT3)] were incubated with compounds for 30 min prior to initiation of the reaction by the addition of substrate and cofactors (if required). Reactions were quenched by the addition of 0.5% formic acid (final) with subsequent neutralization using 1% sodium bicarbonate (final). For SAMDI MS analysis, 2 μL of each reaction was transferred using a 384-channel automated liquid handler to SAMDI biochip arrays functionalized with a neutravidin-presenting self-assembled monolayer. The preparation of SAMDI biochip arrays has been previously described ([41], [42], [49]). The SAMDI arrays were incubated for 1 h in a humidified chamber to allow specific immobilization of the biotinylated substrates and products; they were then purified by washing with ultrafiltered water (50 μL/spot) and dried with compressed air. A matrix comprising α-Cyano-4-hydroxycinnamic acid in 80% acetonitrile: 20% aqueous ammonium citrate (10 mg/mL final) was applied in an automated format by dispensing 50 nL to each spot in the array. SAMDI MS was performed using reflector positive mode on an AB Sciex TOF-TOF 5800 System (AB Sciex, Framingham, MA) with 400 shots/spot analyzed in a random raster sampling. For data analysis, the area under the curves (AUCs) for the product peak and substrate peak were calculated using the TOF/TOF Series Explorer (AB Sciex), and the amount of product formed was calculated using the equation AUC product / (AUC product + AUC Substrate). Negative controls were pre-quenched with 0.5% formic acid (final). Lysozyme assay was performed using the manufacturer’s instructions (Biovision Lysozyme inhibitor screening kit K237). Flavonoids were acquired from Sigma-Aldrich and Seleckchem.
IC50 values of enzyme inhibition. Inhibition of the enzymes was measured at 10 concentration values in the range of 5 nM to 100 μM for each compound and enzyme, with two technical replicates; the percent inhibition values were determined by SAMDI software. Sigmoidal curves were fitted to the percent inhibition vs log10 (concentration) series, and IC50 values were determined at the crossing point of 50 % inhibition. […] First, for each IC50 value per compound and enzyme, a Z-score was calculated based on the log10 (IC50) value and that of the compounds that produced a successful readout for enzyme i , according to Equation 1: […]

human dermal fibroblasts = assay: Protection of fibroblasts against ultraviolet radiation, cell viability by CellTiter-Glo; assay type: cell-based; settings: 1 h pretreatment, 254 nm UV 20 mJ/cm^2, viability 24 h post-irradiation; result in words
Protocol: Human fibroblasts were obtained from Cell Applications Inc (Cat. # 106-05a) and were maintained in Dulbecco’s Modified Eagle medium (DMEM, Corning, Cat. #10-013-CV) with 10% fetal bovine serum (Gibco, Cat. #10082147) and 1% penicillin/streptomycin (Gibco, Cat. # 15070-063) in a humidified incubator with 5% CO2 at 37 °C. For ultraviolet radiation, fibroblasts were seeded in a 96-well plate at a density of 25,000 cells/well and maintained at 37 °C for 24 h. Cells were washed once with Hanks’ balanced salt solution (HBSS, Gibco, Cat. #14025-092), then treated for 1 h with different concentrations of compounds prepared in HBSS. Vitamin C (Sigma, Cat. # A5960) served as a positive control. Treated cells were exposed to ultraviolet light (UVP cross-linker, CL1000, 254 nm UV, 8 watts) at a total dose of 20 mJ/cm^2. Following irradiation, the HBSS was replaced with culture medium containing the same concentration of compounds as before irradiation, and cells were again maintained at 37 °C. Cell viability was measured at 24 h post-irradiation using CellTiter-Glo according to the manufacturer’s instructions (Promega, Cat.# G7571). Results were expressed as relative cell viability (%) with respect to control cells (cells without ultraviolet irradiation or compound treatment).

O=c1c(O[C@@H]2O[C@H](CO)[C@@H](O)[C@H](O)[C@H]2O)c(-c2ccc(O)c(O)c2)oc2cc(O)cc(O)c12 [isoquercitrin]
inhibition of enzyme activity, PTP1B [1]: not | protection against the loss of cell viability caused by UV radiation (human dermal fibroblasts): concentration-dependent protection

O=c1c(O)c(-c2ccc(O)c(O)c2)oc2cc(O)cc(O)c12 [quercetin]
inhibition of enzyme activity, PTP1B ([1]; listed as Quercetin): inhibited | inhibition of enzyme activity, PTP1B ([1]; listed as Quercitin): concentration-dependent inhibition | protection against the loss of cell viability caused by UV radiation (human dermal fibroblasts): concentration-dependent protection

C[C@@H]1O[C@@H](Oc2c(-c3ccc(O)c(O)c3)oc3cc(O)cc(O)c3c2=O)[C@H](O)[C@H](O)[C@H]1O [quercitrin]
inhibition of enzyme activity, PTP1B [1]: did not affect | protection against the loss of cell viability caused by UV radiation (human dermal fibroblasts): concentration-dependent protection
